Reference: patent US20190151294A1, “TREATMENT OF ALCOHOLISM AND DEPRESSION AND/OR DYSPHORIC MOOD USING IBUDILAST” (MEDICINOVA, INC., priority 2016, published 2019)

Experiments:
Assay type in all cases: in vivo, human
[1] = tested on: non-treatment-seeking individuals with AUD; test: Phase 1b study: intravenous alcohol administration (IV-A) challenge, with post-hoc BDI analysis; details: for Response to Alcohol Challenge (alcohol-induced stimulation, positive affect, negative affect, liking, wanting): post-hoc, subjects with higher BDI scores at baseline, vs placebo and vs lower BDI subjects
Method: Infusion was performed by the study nurse under the supervision of the study physician using a 6% alcohol IV infusion. An alcohol infusion nomogram provides a formula for obtaining the rate of infusion based on the participant's gender and weight. Thus, male participants' were infused at a rate determined by the following formula: 0.166-ml/minute×weight in kilogram while the rate of infusion for female participants was calculated as 0.126-ml/minute×weight in kilograms.
(§1) Breath alcohol content (BrAC) was monitored every 3 to 5 minutes during infusion until target BrAC's of 0.02 g·dl, 0.04 g·dl, 0.06 g·dl, and 0.08 g·dl were obtained, following which infusion rates were reduced to half the original rate to maintain stable BrAC levels during the testing phase. The following parameters were assessed prior to intravenous alcohol challenge and again at each target BrAC: (1) Biphasic Alcohol Effects Scale (BAES) to obtain a reliable and valid measure of alcohol's stimulant and sedative effects; (2) Alcohol Urge Questionnaire (AUQ)—an 8-item scale where subjects rate their craving for alcohol at the present moment, which is appropriate for examining the level of the urge to drink alcohol; (3) Alcohol Ratings Scale, which captures “liking” and “wanting” of alcohol”; (4) The Profile of Mood States (POMS; McNair 1971) which was used to record positive and negative mood states; and (5) Heart Rate and Blood Pressure levels measure at baseline and at each target level of BrAC.
To probe the possible relationship between MN-166, mood, and subjective responses to alcohol, further analysis was performed. The following variables were explored in all participants: • 1. Baseline scores for depressive symptomology (as measured by the Beck Depression Inventory (BDI)) were collected. • 2. Responses to Alcohol Challenge (e.g., alcohol-induced stimulation, positive affect, negative affect, “liking,” and “wanting”) were compared between subjects with higher BDI scores (more depressive symptomology) and dysphoria and subjects with lower BDI scores (less depressive symptomology) and dysphoria.

[2] = tested on: non-treatment-seeking individuals with AUD; test: Phase 1b study: safety and tolerability
Method: A Phase 1b laboratory study was conducted to determine the safety, tolerability, and initial efficacy of ibudilast (50 mg BID) in humans as a potential AUD therapeutic agent.
To address each of the above mentioned specific aims, a randomized, crossover, double-blind, placebo-controlled study was conducted to determine the safety, tolerability, and efficacy of ibudilast in individuals with current AUD. Participants were between the ages of 21 and 65 years; met the DSM-5 diagnostic criteria for AUD; reported drinking at least 48 standard drinks in a 30-day period, during the 90 days before enrollment; and were non-treatment seeking alcohol dependent individuals who consented to an inpatient stay at a medical facility for part of the study.
(§2) Twenty four non-treatment-seeking individuals with AUD were treated with ibudilast (50 mg BID) and placebo (PBO). Participants completed two alcohol IV challenges, one after taking IBUD for 6 days and one after taking matched PBO for 6 days with a 5-10 day washout period between the study drug conditions. Ibudilast was obtained in the form of capsules containing a delayed-release 10 mg formulation. Matching capsules of the placebo also were obtained. Each participant visited the Clinical and Translational Research Center (CTRC) during on Days 1-5 of each medication condition during which they came in for daily morning visits with the study nurse to take the morning study medication under direct observation and took home the evening study medication. The participants stayed overnight on Day 6 and were discharged on Day 7. During the daily visits to the CTRC, the study nurse collected vital signs, asked about side effects in an open-ended fashion and used the Systematic Assessment for Treatment Emergent Events (SAFTEE).
(§3) The study comprised a treatment group and a placebo group and each participant completed a daily assessment questionnaire to address changes in mood, withdrawal effects, alcohol cravings, and address issues pertaining to other side effects. Thus, non-treatment seeking alcohol dependent individuals were treated with ibudilast 50 mg (5×10 mg capsules) twice daily (BID) or placebo (PBO). […] Following the intravenous alcohol challenge, participants were monitored for 24 hours and then discharged. Following a 5-10 day washout period study participants were readmitted to the CTRC where they received the opposite treatment (IBUD or PBO) for the second part of the study.
as §1

[3] = tested on: non-treatment-seeking individuals with AUD; test: Phase 1b study: cue reactivity assessment (CR); details: 50 mg BID
Excerpt: The present study also assessed the reactivity of participants to alcohol cues at each dose of medication such that participants served as their own controls. […] The CR assessments followed well-established procedures and participants received standardized instructions about the assessment as they became acclimated to the psychophysiological monitors.
CR assessment sessions began with a 3-minute relaxation period, in which participants were asked to sit quietly and do nothing. Participants then held and smelled a glass of water for 3 minutes as a standard procedure to control for the effects of simple exposure to any potable liquid, followed by a second 3-minute relaxation period. Next, each participant held and smelled a glass of their preferred alcoholic beverage for three minutes. During each trial, the participant was asked to sniff the beverage for 5 consecutive seconds upon hearing a tone sound. Thirteen tone sounds were administered during each 3-minute block of time. […]
Following each 3 minute exposure to alcohol, each participant rated his/her urge to drink alcohol using the 11-point Likert scale (e.g., “none at all” to “extremely strong urge”). Heart rate (beats per minute; BPM) and blood pressure (systolic, diastolic, and mean arterial pressure [MAP]) were monitored continuously using a Dynamap Adult Vital Signs Monitor and values were averaged over each 3-minute trial. […]

[4] = tested on: non-treatment-seeking individuals with AUD; test: Phase 1b study: daily alcohol craving (AUQ); details: 50 mg BID; over the course of the study; p<0.05; FIG. 4
Method: as §2, with “During the daily visits to the CTRC, the study nurse collected vital signs, asked about side effects in an open-ended fashion and used the Systematic Assessment for Treatment Emergent Events (SAFTEE).” left out
as §3, with “effects.” for “effects. Thus, non-treatment seeking alcohol dependent individuals were treated with ibudilast 50 mg (5×10 mg capsules) twice daily (BID) or placebo (PBO).”

**Q.** What does the source list for CC(C)C(=O)c1c(C(C)C)nn2ccccc12 [ibudilast, Ibudilast]?
**A.** subjective response to alcohol during the infusion ([1]; 50 mg BID, day 6 IV alcohol): did not affect; Response to Alcohol Challenge (alcohol-induced stimulation, positive affect, negative affect, liking, wanting) ([1]; listed as MN-166): less positive and more negative responses; Response to Alcohol Challenge (alcohol-induced stimulation, positive affect, negative affect, liking, wanting) ([1]; negative responses to alcohol): more negative; Response to Alcohol Challenge (alcohol-induced stimulation, positive affect, negative affect, liking, wanting) ([1]; positive responses to alcohol): less positive,; dose reductions during the course of the study ([2]; 50 mg BID): no dose reductions; drop-outs for adverse event-related reasons ([2]; 50 mg BID): No subjects dropped out; tolerability and safety ([2]; 50 mg BID oral (20 mg BID days 1-2), 6 days, humans with AUD): well tolerated and safe; heart rate or blood pressure in the context of alcohol consumption ([2]; 50 mg BID, IV alcohol, across the BrACs, p's>=0.35): did not affect; headache, reported adverse drug effect ([2]; 50 mg BID, vs 0 during placebo, p<0.05): 4 instances; cue-induced AUQ craving ([3]; day 6 alcohol cue-exposure): did not affect; positive mood during cue reactivity ([3]; p=0.07): increased positive mood; basal, daily alcohol craving (AUQ) [4]: significantly decreased
